Assays:
PC-3 = test: MTS assay, PC-3 cells; type: cell-based; conditions: Homo sapiens, 72 hours
Protocol: (§1) Cells were maintained at 37° C., 5% CO2 in DMEM media supplemented with 1% fetal bovine serum, penicillin/streptomycin and fungizone (Invitrogen). Cells were seeded into 96-well tissue culture plates at 3000 per well and cultured at 37° C. for 18 hours. Test compounds were dissolved and diluted to 300× in DMSO then diluted 1:40 in DMEM. Cells were incubated with test compounds for 72 hours followed by incubation with tetrazolium compound (3-(4,5-dimethylthiazol-2-yl)-5-(3-carboxymethoxyphenyl)-2-(4-sulfophenyl)-2H-tetrazolium, inner salt; MTS) and the electron coupling reagent, phenazine methosulfate (PMS) for 4 hours. […] The ability of compounds to inhibit cell growth in this assay is correlated with the reduction of dehydrogenase enzyme activity found in metabolically active cells. The measurement of the absorbance of the formazan was assessed using an ENVISION™ (Perkin Elmer) microplate reader at 492 nm. The calculated IC50 value is the concentration of the test compound that causes a 50% decrease in the absorbance.

DLD-1 = test: MTS assay, DLD-1 cells; type: cell-based; conditions: Homo sapiens, 72 hours
Protocol: as §1

MDA-MB-231 = test: MTS assay, MDA-MB-231 cells; type: cell-based; conditions: Homo sapiens, 72 hours
Protocol: as §1

PACA-2 = test: MTS assay, PACA-2 cells; type: cell-based; conditions: 72 hours
Protocol: as §1

KATO III = test: MTS assay, KATO III cells; type: cell-based; conditions: Homo sapiens, 72 hours
Protocol: as §1

NCI-H1299 = test: MTS assay, NCI-H1299 cells; type: cell-based; conditions: Homo sapiens, 72 hours
Protocol: as §1

ABL T315I = ABL T315I (Homo sapiens, UniProt P00519, T315I); test: ABL Kinase Activity Assay (Elisa), ABL T315I; type: biochemical; conditions: ATP 100 μM, read-out: Abl(T315I) Enzymetic assay (Elisa) % inhibition
Protocol: (§2) ABL Kinase Activity Assay
(§3) The disclosed compounds were assayed for their ability to inhibit the activity of ABL kinase. Nunc Maxisorb plates were coated with streptavidin by overnight incubation with 100 μL per well of 1 μg/ml streptavidin in DPBS. Prior to the experiment, the plates were washed with TBST (3×200 μL) and blocked for at least 3 hours by adding 150 μL of 5% BSA/TBST. The plates were washed with TBST (3×200 μL/well) and left dry immediately before the capture step.
(§4) The disclosed test compounds and controls (Gleevec) were prepared using the following assay buffer@10× desired final concentration (50 mM Tris pH 7.0, 0.02 mg/ml BSA, 10 mM MgCl2, 0.1 mM Na3VO4, 1 mM EGTA, 0.01% NP-40, 1 mM DTT in 10% glycerol/water). In a reaction plate, 5 μl test article (or control) and 30 μl ABL or ABL T315I (0.089 nM final concentration, in the above buffer) were added rapidly. The plate was incubated for 20 minutes. To the reaction plate was added ATP (100 μM final concentration) and AblTide (128 nM final concentration) in a volume of 15 μl. The plate was incubated at room temperature for one hour.
(§5) From the reaction plate, 40 μl was transferred to the streptavidin coated plate. The capture plate was incubated at room temperature for 30 minutes, then washed 3× with TBST. To the capture plate was added 100 μL/well of cell signaling anti-phospho tyrosine at a dilution of 1:3000 in 2% BSA/TBST. The plate was incubated for two hours at room temperature then washed 3× with TBST. To the capture plate was added 100 μL/well of alkaline phosphatase tagged goat anti mouse antibody at a dilution of 1:4000 in 2% BSA/TBST. The plate was incubated for one hour at room temperature then washed 3× with TBST.
(§6) The fluorescent readout was initiated by the addition of 100 μl/well of Attophos reagent (6 mg/10 mL). The reading was done on the Perkin Elmer Envision system.

ABL = ABL (Homo sapiens, UniProt P00519); test: ABL Kinase Activity Assay (Elisa), ABL; type: biochemical; conditions: ATP 100 μM, read-out: Abl Enzymetic assay (Elisa) % inhibition
Protocol: as §2, §3, §4, §5, §6

Row | Structure (SMILES) | inhibition at 10 µM (ABL T315I) [%] | inhibition at 10 µM (ABL) [%] | inhibition at 10 µM (PC-3) [%] | inhibition at 10 µM (DLD-1) [%] | inhibition at 10 µM (MDA-MB-231) [%] | inhibition at 10 µM (PACA-2) [%] | inhibition at 10 µM (KATO III) [%] | inhibition at 10 µM (NCI-H1299) [%]
1 | Fc1ccc(CNc2ncc3c(n2)-c2ccccc2Nc2cnccc2-3)c(F)c1 [Example 69, N-(2,4-difluorobenzyl)-9H-pyrido[3,4-b]pyrimido[5,4-d][1]benzazepin-2-amine] |  |  | 80 to 100 | 80 to 100 | 80 to 100 | 80 to 100 | 80 to 100 | 80 to 100
2 | CC(C)(C)C(=O)N1CCN(c2ncc3c(n2)-c2cccnc2Nc2cnccc2-3)CC1 [Example 58, 2-[4-(2,2-dimethylpropanoyl)piperazin-1-yl]-9H-dipyrido[2,3-b:4′,3′-f]pyrimido[4,5-d]azepine] |  |  | 50 to 79 | 80 to 100 | < 50 | 80 to 100 | 50 to 79 | 
3 | CC(=O)N1CCN(c2ncc3c(n2)-c2cccnc2Nc2ccccc2-3)CC1 [Example 68, 2-(4-acetylpiperazin-1-yl)-9H-pyrido[2 ,3-b]pyrimido[4,5-d][1]benzazepine] |  |  | 80 to 100 | 80 to 100 | 80 to 100 | 80 to 100 | 80 to 100 | 50 to 79
4 | Nc1ncc2c(n1)-c1cccnc1Nc1ccccc1-2 [Example 62, 9H-pyrido[2,3-b]pyrimido[4,5-d][1]benzazepin-2-amine] | 50 to 79 | 50 to 79 | < 50 |  | < 50 | < 50 | < 50 | 
5 | CC(=O)N1CCN(c2ncc3c(n2)-c2cccnc2Nc2cnccc2-3)CC1 [Example 57, 2-(4-acetylpiperazin-1-yl)-9H-dipyrido[2,3-b:4′,3′-f]pyrimido[4,5-d]azepine] |  |  | 80 to 100 | 80 to 100 | 80 to 100 | 80 to 100 | 80 to 100 | 80 to 100
6 | Clc1cccc(CNc2ncc3c(n2)-c2ccccc2Nc2cnccc2-3)c1 [Example 70, N-(3-chlorobenzyl)-9H-pyrido[3,4-b]pyrimido[5,4-d][1]benzazepin-2-amine] |  |  | 80 to 100 | 80 to 100 | 80 to 100 | 80 to 100 | 80 to 100 | 80 to 100
7 | Fc1ccc(CNc2ncc3c(n2)-c2cccnc2Nc2ccccc2-3)c(F)c1 [Example 64, N-(2,4-difluorobenzyl)-9H-pyrido[2,3-b]pyrimido[4,5-d][1]benzazepin-2-amine] | < 50 | 50 to 79 | < 50 | < 50 | < 50 |  | < 50 | < 50
8 | c1ccc(CNc2ncc3c(n2)-c2cccnc2Nc2cnccc2-3)nc1 [Example 49, N-(pyridin-2-ylmethyl)-9H-dipyrido[2,3-b:4′,3′-f]pyrimido[4,5-d]azepin-2-amine] |  |  | 80 to 100 | 80 to 100 | 80 to 100 | 80 to 100 | 80 to 100 | 80 to 100

Further lines, with some results ahead:

Row | inhibition at 10 µM (ABL T315I) [%] | inhibition at 10 µM (ABL) [%] | Structure (SMILES) | inhibition at 10 µM (PC-3) [%] | inhibition at 10 µM (DLD-1) [%] | inhibition at 10 µM (MDA-MB-231) [%] | inhibition at 10 µM (PACA-2) [%] | inhibition at 10 µM (KATO III) [%] | inhibition at 10 µM (NCI-H1299) [%]
9 | 80 to 100 | 80 to 100 | COc1ccc(CCNc2ncc3c(n2)-c2cccnc2Nc2cnccc2-3)cc1OC [Example 14, N-[2-(3,4-dimethoxyphenyl)ethyl]-9H-dipyrido[2,3-b:4′,3′-f]pyrimido[4,5-d]azepin-2-amine] | < 50 | < 50 | < 50 | < 50 | < 50 | < 50
10 | 80 to 100 | 80 to 100 | c1ccc(-c2cccc(CNc3ncc4c(n3)-c3cccnc3Nc3cnccc3-4)c2)cc1 [Example 45, N-(biphenyl-3-ylmethyl)-9H-dipyrido[2,3-b:4′,3′-f]pyrimido[4,5-d]azepin-2-amine] | < 50 | 80 to 100 |  | 80 to 100 | 80 to 100 | 50 to 79
11 | < 50 | 50 to 79 | COc1cc(CCNc2ncc3c(n2)-c2cccnc2Nc2cnccc2-3)cc(OC)c1 [Example 38, N-[2-(3,5-dimethoxyphenyl)ethyl]-9H-dipyrido[2,3-b:4′,3′-f]pyrimido[4,5-d]azepin-2-amine] | < 50 | < 50 |  | < 50 | < 50 | 
12 | < 50 | 50 to 79 | CN(C)CCCNc1ncc2c(n1)-c1cccnc1Nc1cnccc1-2 [Example 50, N′-9H-dipyrido[2,3-b:4′,3′-f]pyrimido[4,5-d]azepin-2-yl-N,N-dimethylpropane-1,3-diamine] | < 50 |  |  | < 50 | < 50 | 
13 | 80 to 100 | 80 to 100 | CCC(CC)Nc1ncc2c(n1)-c1cccnc1Nc1cnccc1-2 [Example 18, N-(1-ethylpropyl)-9H-dipyrido[2,3-b:4′,3′-f]pyrimido[4,5-d]azepin-2-amine] | < 50 | < 50 | < 50 |  | 50 to 79 | < 50
14 | 80 to 100 | 80 to 100 | CC(CO)Nc1ncc2c(n1)-c1cccnc1Nc1cnccc1-2 (centres unmarked) [Example 17, 2-(9H-dipyrido[2,3-b:4′,3′-f]pyrimido[4,5-d]azepin-2-ylamino)propan-1-ol] | < 50 |  |  |  | < 50 | 
15 | 80 to 100 | 80 to 100 | Fc1ccc(CNc2ncc3c(n2)-c2cccnc2Nc2cnccc2-3)c(Cl)c1 [Example 10, N-(2-chloro-4-fluorobenzyl)-9H-dipyrido[2,3-b:4′,3′-f]pyrimido[4,5-d]azepin-2-amine] | < 50 |  | < 50 |  |  | < 50
16 | 80 to 100 | 80 to 100 | c1cnc2c(c1)-c1nc(NC3CCNCC3)ncc1-c1ccncc1N2 [Example 59, N-piperidin-4-yl-9H-dipyrido[2,3-b:4′,3′-f]pyrimido[4,5-d]azepin-2-amine] | 80 to 100 |  | 80 to 100 |  | 80 to 100 | 
17 | 80 to 100 | 50 to 79 | O=C1CCCN1CCCNc1ncc2c(n1)-c1cccnc1Nc1cnccc1-2 [Example 4, 1-[3-(9H-dipyrido[2,3-b:4′,3′-f]pyrimido[4,5-d]azepin-2-ylamino)propyl]pyrrolidin-2-one] | < 50 | < 50 | < 50 |  | < 50 | < 50
18 | 80 to 100 | 80 to 100 | Brc1ccc(CCNc2ncc3c(n2)-c2cccnc2Nc2cnccc2-3)cc1 [Example 46, N-[2-(4-bromophenyl)ethyl]-9H-dipyrido[2,3-b:4′,3′-f]pyrimido[4,5-d]azepin-2-amine] | < 50 | 50 to 79 |  | < 50 | 50 to 79 | < 50
19 | 80 to 100 | 80 to 100 | CN(C)CCCCCNc1ncc2c(n1)-c1cccnc1Nc1cnccc1-2 [Example 48, N′-9H-dipyrido[2,3-b:4′,3′-f]pyrimido[4,5-d]azepin-2-yl-N,N-dimethylpentane-1,5-diamine] | 50 to 79 | < 50 | 50 to 79 | < 50 | < 50 | 
